Measured values reported in US7727933B2, “2-ethyl-4,6-dimethyl-phenyl-substituted spirocyclic tetramic acid derivatives” (Bayer CropScience AG, priority 2003, dated 2010).

Columns and labels:
Assay type in all cases: in vivo
Summer barley = assay: Herbicidal post-emergence action with use of safeners (Example B), crop plant compatibility; settings: without safener, rated 3-4 weeks after treatment
Experimental: Seeds of monocotyledonous and dicotyledonous weed and crop plants are placed into sandy loam in wood fibre pots or in plastic pots, covered with soil and cultivated in a greenhouse, during the vegetation period also outdoors outside of the greenhouse, under good growth conditions. 2-3 weeks after sowing, the test plants are treated at the one- to three-leaf stage. The test compounds, formulated as wettable powders (WP) or emulsifiable concentrates (EC) are, in various dosages with a water application rate of 300 l/ha (converted), with wetting agent (0.2 to 0.3%) added, sprayed onto the plants and the surface of the soil. 3-4 weeks after the treatment of the test plants, the effect of the preparations is rated visually in comparison to untreated controls (herbicidal effect in percent (%): 100% effect=the plants have died, 0% effect=like control plants). […]

Setaria = assay: Herbicidal post-emergence action (Example A); settings: 320 g of a.i./ha, rated visually after about 3 weeks, 100% = plants have died
Experimental: (§1) Seeds of monocotyledonous and dicotyledonous weed and crop plants are placed into sandy loam in wood fibre pots, covered with soil and cultivated in a greenhouse under good growth conditions. 2-3 weeks after sowing, the test plants are treated at the one-leaf stage. The test compounds, formulated as wettable powders (WP), are, in various dosages with a water application rate of 600 l/ha (converted), with 0.2% of wetting agent added, sprayed onto the green parts of the plants. After the test plants were kept in the greenhouse under optimum growth conditions for about 3 weeks, the effect of the preparations is rated visually in comparison to untreated controls (herbicidal effect in percent (%): 100% effect=the plants have died, 0% effect=like control plants).

Lolium = assay: Herbicidal post-emergence action (Example A); settings: 320 g of a.i./ha, rated visually after about 3 weeks, 100% = plants have died
Experimental: as §1

Avena sativa = assay: Herbicidal post-emergence action (Example A); settings: 320 g of a.i./ha, rated visually after about 3 weeks, 100% = plants have died
Experimental: as §1

Which “Summer barley observed (%)” value (Summer barley; 12.5 g of a.i./ha) does the source give for `CCc1cc(C)cc(C)c1C1=C(OC(=O)COC)C2(CCC(OC)CC2)NC1=O` (centres unmarked) [Ex. I-b-1] here?
The value was 65%.

What about the “Summer barley observed (%)” value (Summer barley; 25 g of a.i./ha) of the same compound?
Its value is 93%.

What about the “herbicidal effect in percent, Setaria” value (Setaria) of the same compound?
The value was 90%.

And the “herbicidal effect in percent, Lolium” value (Lolium)?
The value was 100%.

And the “herbicidal effect in percent, Avena sativa” value (Avena sativa)?
The value was 100%.
